In patent US20120251630A1, “REMISSION THERAPY OF CANCER WITH ISOFLAVONOIDS” (MARSHALL EDWARDS, INC., priority 2011, published 2012):

Tests used:
Type in all cases: cell-based, human
[1] = system: CD44+/MYD88+ epithelial ovarian cancer (EOC) stem cells; assay: ApoSENSOR ADP/ATP ratio assay kit, ATP and ADP levels
Experimental: FIG. 2 illustrates the levels of ATP and ADP measured at designated times using Apo-SENSOR ADP/ATP ratio assay kit. […] (p<0.0001 compared to control)
FIG. 7. Compound 1-induced loss of ATP leads to mTor inhibition. EOC stem cells were treated with compound 1 in the presence of 10% FBS. FIG. 7 illustrates the levels of ATP and ADP measured at designated times using ApoS-SENSOR ADP/ATP ratio assay kit. # p<0.001 compared to compound 1 alone.
(§1) A panel of CD44+/MYD88+ epithelial ovarian cancer (EOC) stem cells was treated with compound 1 (10 μg/mL) at designated times. CD44+/MYD88+ ovarian cancer stem cells are isolated from either tumor tissue or ascites obtained from patients diagnosed with stage III/IV serous ovarian carcinoma. Mitochondrial function was assessed using the JC1 dye (Biovision Inc), MitoSox dye (Invitrogen), and ApoSENSOR ADP/ATP kit (Biovision Inc.). Protein levels were determined using Western blot analysis. […] The impact of compound 1 on energy production was examined by measuring ADP and ATP levels. […] The stem cells were treated with increasing with compound 1 (10 μg/mL) at times points shown.
(§2) EOC stem cells were treated with compound 1 in the presence of 10% fetal bovine serum (FBS).

EOC stem cells [2] = assay: Flow cytometry with JC1 dye, mitochondrial membrane potential
Experimental: FIG. 5. EOC stem cells were treated with compound 1 in the presence or absence of the MEK inhibitor, U0126. Flow cytometry analysis using JC1 dye illustrates the effect on mitochondrial membrane potential (MMP). FIG. 5 illustrates that inhibition of ERK with U0126 is able to reverse the effect of compound 1 on MMP.
as §1
Inhibitory studies were done using the specific MEK inhibitor U0126 (10 μM) or the ROS scavenger, MnTBAP (500 μM). […] Flow cytometry analysis using JC1 green fluorescence illustrates the effect of compound 1 on mitochondrial membrane potential. […] The mitochondrial fractions of cells treated with compound 1 in the presence or absence of U0126 were analyzed. […]

EOC stem cells [3] = assay: Western blot analysis of mitochondrial fractions, Bax
Experimental: FIG. 6. Western blot analysis using mitochondrial fractions illustrates the effect on mitochondrial Bax. U0126 inhibited compound 1-induced loss of mitochondrial membrane potential and mitochondrial translocation of Bax (member of the proapoptotic Bcl2 family).
(§3) Inhibitory studies were done using the specific MEK inhibitor U0126 (10 μM) or the ROS scavenger, MnTBAP (500 μM). EOC stem cells were treated with compound 1 in the presence or absence of the ROS scavenger, MnTBAP (Alexis Biochemicals). […] (FIG. 4) EOC stem cells were treated with compound 1 in the presence or absence of the MEK inhibitor, U0126 (Sigma Aldrich). EOC stem cells were pre-treated with U0126 (10 μM) for 1 hour before treatment with compound 1. Flow cytometry analysis using JC1 green fluorescence illustrates the effect of compound 1 on mitochondrial membrane potential. Pretreatment with U0126 reduced the percentage of cells that lost mitochondrial membrane potential (59% vs 23% for compound 1 along and compound 1 with U0126, respectively) (FIG. 5). The mitochondrial fractions of cells treated with compound 1 in the presence or absence of U0126 were analyzed. […] (FIG. 6)

EOC stem cells [4] = assay: Western blot analysis of protein levels (Cox-IV, pS6 kinase, ERK, AMPKα1)
Experimental: FIG. 3. Western blot analysis illustrates a decrease in Cox-IV and pS6 kinase, and activation of ERK and AMPKα1 (C).
FIG. 4. EOC stem cells were treated with compound 1 in the presence or absence of the ROS scavenger, MnTBAP. Western blot analysis (FIG. 2) illustrates the effect of MnTBAP pretreatment on mitochondrial ERK, pS6 and β-actin activation. […] Compound 1-induced ROS production leads to ERK activation and loss of mitochondrial membrane potential (MMP).
FIG. 8. Western blot analysis illustrates that treatment of ovarian cancer stem cells with compound 1 in the presence of FBS was able to prevent compound 1 induced decrease in pS6 kinase.
as §1, §3, §2

ovarian cancer stem cell = assay: Mitochondrial function assessment (JC1 dye, MitoSox dye, ApoSENSOR ADP/ATP kit); conditions: overall conclusion of Example 1
Experimental: as §1

[5] = system: CD44+/MYD88+ epithelial ovarian cancer (EOC) stem cells; assay: Flow cytometry with MitoSox dye, mitochondrial superoxide; conditions: 10 μg/mL, designated times
Experimental: FIG. 1. EOC stem cells were treated with 10 μg/ml compound 1 at designated times. Flow cytometry analysis (FIG. 1) illustrates the increased levels of mitochondrial superoxide using MitoSox dye.
as §1

[6] = in the presence of 10% fetal bovine serum (FBS)

## COc1ccc(C2c3ccc(O)c(C)c3OCC2c2ccc(O)cc2)cc1 (stereo not drawn) [compound 1, 3-(4-hydroxyphenyl)-4-(4-methoxyphenyl)-8-methylchroman-7-ol]
[1]; 10 μg/mL, after 2 and 4 hours of treatment
  ADP level: accumulated ADP
[1]; 10 μg/mL, after 2 and 4 hours of treatment, p<0.0001 compared to control
  ATP production: decrease in ATP production
[1]; [6]
  ATP loss: Abrogation of ATP loss
EOC stem cells [2]; compound 1 alone
  percentage of cells that lost mitochondrial membrane potential: 59%
EOC stem cells [2]; pre-treated with MEK inhibitor U0126 (10 μM) for 1 hour before compound 1
  percentage of cells that lost mitochondrial membrane potential: 23%
EOC stem cells [3]; compound 1 alone, mitochondrial fractions
  mitochondrial Bax (proapoptotic Bcl2 family member): upregulates
EOC stem cells [3]; pre-treatment with U0126 followed by compound 1
  compound 1-induced upregulation of mitochondrial Bax: prevented compound 1-induced upregulation
EOC stem cells [4]; 10 μg/mL
  Cox-IV protein level (Western blot): decreases activation
  activation of AMPKα1 (Western blot): increases activation
  activation of ERK (Western blot): increases activation
  activation of pS6 kinase (Western blot): decreases activation
EOC stem cells [4]; [6]
  compound 1-induced decrease in pS6k: prevented compound 1-induced decrease in pS6k
EOC stem cells [4]; in the presence of ROS scavenger MnTBAP (500 μM)
  compound 1-induced activation of mitochondrial ERK: MnTBAP inhibited compound 1-induced activation of mitochondrial ERK
Ovarian cancer stem cell
  mitochondrial function: significantly inhibits mitochondrial function
[5]
  mitochondrial superoxide (MitoSox fluorescence): increase in mitochondrial superoxide
